Test results published in patent US20180243190A1, “ACTIVATORS OF NRF2-DEPENDENT PHOTOPROTECTION AND RELATED USES THEREOF” (THE ARIZONA BOARD OF REGENTS ON BEHALF OF THE UNIVERSITY OF …, priority 2015, published 2018).

What was measured:
[1] = design: species or system SKH-1 mice; details: mouse, in vivo, 200 mg/kg
Source text: (§1) To explore the potential systemic photoprotective activity of bixin in a murine skin sunburn model, the feasibility of upregulating cutaneous NRF2 activity by systemic administration was first examined. It has been reported earlier that efficient cutaneous accumulation of dietary carotenoids requires prolonged nutritional supplementation over weeks and that pharmacokinetic parameters of cutaneous delivery of dietary carotinoids differ between humans and mice. Therefore, in order to circumvent the more complex pharmacokinetics associated with dietary supplementation, an intraperitoneal (i.p.) route for bixin systemic administration followed by examination of cutaneous NRF2 status was chosen. After i.p. injection of bixin (200 mg/kg) performed in Nrf2^+/+ and Nrf2^−/− mice, plasma was collected at 0, 1, 2, 4, 8, 16, 24, 48 and 72 h after injection followed by HPLC-photodiode array detection (FIG. 4A-C). […] Next, efficacy of various bixin treatment regimens (differing with regard to total dose and time after injection) for maximum activation of the NRF2 pathway in murine skin was determined (FIG. 4D).
Electrospray mass spectrometry of bixin [dissolved in tetrahydrofuran and diluted tenfold in acetonitrile/NH4OH (0.1 N); ESI-MS (negative ion mode) m/z 393.21 (M−1)^−] was performed using a Bruker Apex FT/ICR mass spectrometer. […]

[2] = system: cutaneous NRF2; assay: Cutaneous NRF2 activation after systemic administration (immunoblot, IHC, RT-PCR of skin); assay type: in vivo, SKH-1 mice
Source text: as §1
Next, the feasibility of bixin-induced cutaneous protection was studied in a solar UV photodamage model. Nrf2^+/+ and Nrf2^−/− mice were i.p. injected with either corn oil (carrier control) or bixin (200 mg/kg) 48 h before solar UV exposure (240 mJ/cm^2 UVB; 4.4 J/cm^2 UVA). 24 h after UV exposure back skin tissue was then collected followed by immunohistochemical (IHC) analysis. […] Moreover, UV exposure alone activated the NRF2 response in murine skin, effects not detectable in Nrf2^−/− mice (FIG. 5).
Total RNA was extracted from HaCaT cells and mouse skin tissues using TRIzol (Invitrogen). Equal amounts of mRNA were used to generate cDNA using the M-MLV Reverse Transcriptase synthesis kit according to the manufacturer's instructions (Promega). RT-PCR and primer sequences of NRF2, KEAP1, GCLM, AKR1C1 and GAPDH were described previously to evaluate mRNA expression using the LightCycler 480 system (Roche). Quantification of cDNA amount for mouse Nrf2, Keap1, Gclm, and Akr1c1 in each skin tissue sample was performed using the KAPA SYBR FAST qPCR Kit (Kapa Biosystems).
Nrf2^+/+ and Nrf2^−/− SKH-I mice were obtained by breeding Nrf2 heterozygous mice generated by back-crossing Nrf2^−/− C57BL/6 mice onto the SKH-1 hairless mouse genetic background for at least six generations (JAX® Mice, The Jackson Laboratory). All animals received water and food ad libitum and were handled according to the Guide for the Care and Use of Laboratory Animals; the protocols were approved by the University of Arizona Institutional Animal Care and Use Committee. Eight-week-old Nrf2^+/+ and Nrf2^−/− mice were randomly allocated into four groups (n=6): (i) control (corn oil); (ii) bixin (200 mg/kg, dissolved in corn oil); (iii) UV; (iv) bixin+UV. Bixin was administered through intraperitoneal (i.p.) injection 48 h before UV exposure.
24 h after UV exposure, the mice were euthanized and back skin was collected and divided into two parts: one part was frozen in liquid nitrogen for total RNA extraction and protein analysis; the other part was fixed in 10% buffered formalin and embedded in paraffin for histological and immunohistochemical analyses. Tissue sections (4 μm) were baked and deparaffinized. Hematoxylin and eosin (H&E) staining was performed for pathological examination. […]

[3] = system: NRF2; assay: Immunoblot analysis of NRF2 and NRF2 targets in HEKs; assay type: cell-based, human; details: ≤20 μM, 24 h, exposure time ≤24 h at 20 μM
Method: Experiments were performed according to previously published procedures. Cells were harvested in sample buffer (50 mM Tris-HCl [pH 6.8], 2% sodium dodecyl sulfate (SDS), 10% glycerol, 100 mM dithiothreitol (DTT), and 0.1% bromophenol blue), boiled and sonicated. Total cell lysates were resolved by SDS-PAGE and subjected to immunoblot analyses with the indicated antibodies. For the ubiquitination assay, cells were cotransfected with expression vectors for NRF2 and HA-tagged ubiquitin (HA-Ub). Cells were left untreated or treated with either 5 μM sulforaphane (SF) or 40 μM bixin along with 10 μM MG132 for 4 h. Cells were harvested in buffer containing 2% SDS, 150 mM NaCl, 10 mM Tris-HCl (pH 8.0), and 1 mM DTT and boiled immediately. For immunoprecipitation, 1 μg of NRF2 antibody was incubated with the cell lysates at 4° C. overnight with protein A agarose beads (Invitrogen). Immunoprecipitated complexes were washed four times with RIPA buffer and eluted in sample buffer by boiling for 5 min. Samples were resolved by SDS-PAGE and immunoblotted with HA antibody. To measure the half-life of NRF2, HaCaT cells were either left untreated or treated with 5 μM bixin for 4 h, then 50 μM cycloheximide was added to block protein synthesis. […] The relative intensity of the bands was quantified using the ChemiDoc CRS gel documentation system and Quantity One software (BioRad).

## COC(=O)/C=C/C(C)=C\C=C\C(C)=C\C=C\C=C(C)\C=C\C=C(C)\C=C\C(=O)O [bixin]
[1]
  AUC, Nrf2+/+ versus Nrf2−/−: did not differ significantly
[1]; ip
  peak plasma concentration (Cmax): up to 11.3 μg/ml
[2]; 200 mg/kg i.p.
  skin mRNA levels of Nrf2: did not increase
  skin protein or mRNA levels of Keap1: no effects
[2]; 200 mg/kg, 72 h after injection, Nrf2+/+ mice
  upregulation of cutaneous protein levels of NRF2 and its targets (GCLM and AKR1C1), comparison of regimens: most effective
[2]; Nrf2+/+ mice, 200 mg/kg i.p.
  cutaneous NRF2 pathway (NRF2, GCLM, AKR1C1 protein and mRNA): dramatically induced
[2]; dosage amounts less than 10 mg/kg
  activation of NRF2 pathway related activity within skin cells: insufficient
[3]
  protein levels of NRF2 and NRF2 targets (NQO1, AKR1C2, HO-1, TrxR, GCLM, SRXN1, FTH1): increased protein levels
